In brackets after ≈: the same amount, converted by molar mass.
Assay: solubility in aqueous phase
Format: physicochemical
Conditions: water, 25° C.
Source text: By having an aromatic-like, heterocyclic triazine nucleus, it is believed to impart a network structure into the protein during tanning, giving better thermal stability.

- solubility: 10000 µg/mL (≈ 33.6 mM)
SMILES: O=c1n(CC2CO2)c(=O)n(CC2CO2)c(=O)n1CC1CO1 (stereo not shown) [TGIC, trigycidyl isocyanurate]

Reference: patent US20090300848A1, “EPOXIDE-BASED TANNAGE SYSTEM” (BLC LEATHER TECHNOLOGY CENTRE LTD, priority 2006, published 2009)
